Patent US20100298141A1, “SUBSTITUTED PYRIDINE N-OXIDE HERBICIDES” (E. I. DU PONT DE NEMOURS AND COMPANY, priority 2007, published 2010)

Columns and labels:
Assay in all cases: Test F preemergence test
Canada horseweed = format: in vivo, Conyza canadensis; conditions: scale 0 to 100
Procedure, shortened: (§1)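 Compound in a non-phytotoxic solvent blend with surfactant is applied preemergence to planted seeds or postemergence to sugarcane plants. Plants and controls stay in the greenhouse 14 to 21 days before visual comparison.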

pitted morningglory = format: in vivo, Ipomoea lacunosa; conditions: scale 0 to 100
Procedure, shortened: as §1

southern sandbur = format: in vivo, Cenchrus echinatus; conditions: scale 0 to 100
Procedure, shortened: as §1

bermudagrass = format: in vivo, Cynodon dactylon; conditions: scale 0 to 100
Procedure, shortened: as §1

common purslane = format: in vivo, Portulaca oleracea; conditions: scale 0 to 100
Procedure, shortened: as §1

quackgrass = format: in vivo, Elytrigia repens; conditions: scale 0 to 100
Procedure, shortened: as §1

common chickweed = format: in vivo, Stellaria media; conditions: scale 0 to 100
Procedure, shortened: as §1

green foxtail = format: in vivo, Setaria viridis; conditions: scale 0 to 100
Procedure, shortened: as §1

guineagrass = format: in vivo, Panicum maximum; conditions: scale 0 to 100
Procedure, shortened: as §1

large crabgrass = format: in vivo, Digitaria sanguinalis; conditions: scale 0 to 100
Procedure, shortened: as §1

prickly sida = format: in vivo, Sida spinosa; conditions: scale 0 to 100
Procedure, shortened: as §1

mustard = format: in vivo, Brassica nigra; conditions: scale 0 to 100
Procedure, shortened: as §1

field bindweed = format: in vivo, Convolvulus arvensis; conditions: scale 0 to 100
Procedure, shortened: as §1

naked crabgrass = format: in vivo, Digitaria nuda; conditions: scale 0 to 100
Procedure, shortened: as §1

Surinam grass = format: in vivo, Brachiaria decumbens; conditions: scale 0 to 100
Procedure, shortened: as §1

common ragweed = format: in vivo, Ambrosia elation; conditions: scale 0 to 100
Procedure, shortened: as §1

common mallow = format: in vivo, Malva sylvestris; conditions: scale 0 to 100
Procedure, shortened: as §1

Italian ryegrass = format: in vivo, Lolium multiflorum; conditions: scale 0 to 100
Procedure, shortened: as §1

barnyardgrass = format: in vivo, Echinochloa crus-galli
Procedure, shortened: as §1

annual bluegrass = format: in vivo, Poa annua; conditions: scale 0 to 100
Procedure, shortened: as §1

Cn1nc(C(F)(F)F)c(C[S+]([O-])c2ccc(Cl)c[n+]2[O-])c1OCC(F)(F)F (racemic) [Compound 62]
30: Plant response rating, Barnyardgrass (barnyardgrass; 16 g ai/ha, preemergence, scale 0 to 100 (0 no effect, 100 complete control))
80: Foxtail, Green plant response rating (green foxtail; 62 g ai/ha, Preemergence) | Plant response rating, Guineagrass (guineagrass; Preemergence, 31 g ai/ha) | Ragweed plant response rating (common ragweed; 125 g ai/ha, preemergence) | Plant response rating, Mallow (common mallow; Preemergence, 31 g ai/ha) | Bluegrass plant response rating (annual bluegrass; 62 g ai/ha, Preemergence)
75: Morningglory plant response rating (pitted morningglory; 62 g ai/ha, Preemergence) | Plant response rating, Morningglory (pitted morningglory; Preemergence, 31 g ai/ha) | Plant response rating, Sandbur (southern sandbur; Preemergence, 31 g ai/ha) | Bermudagrass plant response rating (bermudagrass; 62 g ai/ha, Preemergence) | Purslane plant response rating (common purslane; 125 g ai/ha, preemergence) | Quackgrass plant response rating (quackgrass; 62 g ai/ha, Preemergence) | Plant response rating, Quackgrass (quackgrass; Preemergence, 31 g ai/ha) | Prickly Sida plant response rating (prickly sida; 62 g ai/ha, Preemergence) | Field Bindweed plant response rating (field bindweed; 62 g ai/ha, Preemergence) | Field Bindweed plant response rating (field bindweed; 125 g ai/ha, preemergence) | Plant response rating, Field Bindweed (field bindweed; Preemergence, 31 g ai/ha) | Plant response rating, Barnyardgrass (barnyardgrass; Preemergence, 31 g ai/ha, scale 0 to 100)
0: Plant response rating, Horseweed (Canada horseweed; 16 g ai/ha, preemergence) | Plant response rating, Morningglory (pitted morningglory; 16 g ai/ha, preemergence) | Plant response rating, Black Mustard (mustard; Preemergence, 31 g ai/ha) | Plant response rating, Field Bindweed (field bindweed; 16 g ai/ha, preemergence) | Plant response rating, Mallow (common mallow; 16 g ai/ha, preemergence)
65: Plant response rating, Foxtail, Green (green foxtail; Preemergence, 31 g ai/ha) | Plant response rating, Prickly Sida (prickly sida; Preemergence, 31 g ai/ha)
25: Plant response rating, Sandbur (southern sandbur; 16 g ai/ha, preemergence)
70: Plant response rating, Guineagrass (guineagrass; 16 g ai/ha, preemergence) | Plant response rating, Ragweed (common ragweed; Preemergence, 62 g ai/ha) | Plant response rating, Bluegrass (annual bluegrass; Preemergence, 31 g ai/ha)
50: Plant response rating, Ryegrass, Italian (Italian ryegrass; 16 g ai/ha, preemergence)
95: Prickly Sida plant response rating (prickly sida; 125 g ai/ha, preemergence) | Plant response rating, Surinam Grass (Surinam grass; Preemergence, 31 g ai/ha)
40: Plant response rating, Purslane (common purslane; Preemergence, 31 g ai/ha) | Plant response rating, Quackgrass (quackgrass; 16 g ai/ha, preemergence)
90: Crabgrass, Large plant response rating (large crabgrass; 62 g ai/ha, Preemergence) | Black Mustard plant response rating (mustard; 62 g ai/ha, Preemergence) | Plant response rating, Crabgrass, Naked (naked crabgrass; 16 g ai/ha, preemergence) | Plant response rating, Crabgrass, Naked (naked crabgrass; Preemergence, 31 g ai/ha)
98: Sandbur plant response rating (southern sandbur; 125 g ai/ha, preemergence) | Plant response rating, Sandbur (southern sandbur; Preemergence, 62 g ai/ha) | Quackgrass plant response rating (quackgrass; 125 g ai/ha, preemergence) | Crabgrass, Large plant response rating (large crabgrass; 125 g ai/ha, preemergence) | Black Mustard plant response rating (mustard; 125 g ai/ha, preemergence) | Mallow plant response rating (common mallow; 62 g ai/ha, Preemergence) | Plant response rating, Ryegrass, Italian (Italian ryegrass; Preemergence, 31 g ai/ha)
100: Horseweed plant response rating (Canada horseweed; 62 g ai/ha, Preemergence) | Horseweed plant response rating (Canada horseweed; 125 g ai/ha, preemergence) | Plant response rating, Horseweed (Canada horseweed; Preemergence, 31 g ai/ha) | Morningglory plant response rating (pitted morningglory; 125 g ai/ha, preemergence) | Bermudagrass plant response rating (bermudagrass; 125 g ai/ha, preemergence) | Plant response rating, Chickweed (common chickweed; 16 g ai/ha, preemergence) | Chickweed plant response rating (common chickweed; 62 g ai/ha, Preemergence) | Chickweed plant response rating (common chickweed; 125 g ai/ha, preemergence) | Plant response rating, Chickweed (common chickweed; Preemergence, 31 g ai/ha) | Foxtail, Green plant response rating (green foxtail; 125 g ai/ha, preemergence) | Guineagrass plant response rating (guineagrass; 62 g ai/ha, Preemergence) | Guineagrass plant response rating (guineagrass; 125 g ai/ha, preemergence) | Crabgrass, Naked plant response rating (naked crabgrass; 62 g ai/ha, Preemergence) | Crabgrass, Naked plant response rating (naked crabgrass; 125 g ai/ha, preemergence) | Surinam Grass plant response rating (Surinam grass; 125 g ai/ha, preemergence) | Plant response rating, Surinam Grass (Surinam grass; Preemergence, 62 g ai/ha) | Mallow plant response rating (common mallow; 125 g ai/ha, preemergence) | Ryegrass, Italian plant response rating (Italian ryegrass; 125 g ai/ha, preemergence) | Plant response rating, Ryegrass, Italian (Italian ryegrass; Preemergence, 62 g ai/ha) | Barnyardgrass plant response rating (barnyardgrass; 62 g ai/ha, Preemergence, scale 0 to 100) | Barnyardgrass plant response rating (barnyardgrass; 125 g ai/ha, preemergence, scale 0 to 100) | Bluegrass plant response rating (annual bluegrass; 125 g ai/ha, preemergence)
60: Purslane plant response rating (common purslane; 62 g ai/ha, Preemergence) | Plant response rating, Crabgrass, Large (large crabgrass; Preemergence, 31 g ai/ha) | Plant response rating, Surinam Grass (Surinam grass; 16 g ai/ha, preemergence) | Plant response rating, Ragweed (common ragweed; 16 g ai/ha, preemergence) | Plant response rating, Ragweed (common ragweed; Preemergence, 31 g ai/ha)
15: Plant response rating, Purslane (common purslane; 16 g ai/ha, preemergence) | Plant response rating, Crabgrass, Large (large crabgrass; 16 g ai/ha, preemergence) | Plant response rating, Prickly Sida (prickly sida; 16 g ai/ha, preemergence)
20: Plant response rating, Bermudagrass (bermudagrass; 16 g ai/ha, preemergence) | Plant response rating, Bermudagrass (bermudagrass; Preemergence, 31 g ai/ha) | Plant response rating, Foxtail, Green (green foxtail; 16 g ai/ha, preemergence) | Plant response rating, Black Mustard (mustard; 16 g ai/ha, preemergence) | Plant response rating, Bluegrass (annual bluegrass; 16 g ai/ha, preemergence)
